B2: XLG2 C terminal Gα domain (residues from 435 to 861) (domain or fragment, Arabidopsis, UniProt C6KIE6 435-861, looked up)
chain: CAVFSLPVPPASSAVEPYDVPLYEQKMLNKLLLIGSEKGGATTIYKQARSLYNVSFSLEDRERIKFIIQTNLYTYLAMVLEAHERFEKEMSNDQSSGNVGDETSAKPGNSINPRLKHFSDWVLKEKEDGNLKIFPPSSRENAQTVADLWRVPAIQATYKRLRDTLPRNAVYFLERILEISRSEYDPSDMDILQAEGLSSMEGLSCVDFSFPSTSQEESLESDYQHDTDMKYQLIRLNPRSLGENWKLLEMFEDADLVIFCVSLTDYAENIEDGEGNIVNKMLATKQLFENMVTHPSLANKRFLLVLTKFDLLEEKIEEVPLRTCEWFEDFNPLISQNQTSRHNPPMAQRAFHYIGYKFKRLYDSILEPVNMRGRSFKPKLFVCQVSLESDTVDNALRYAREILKWHVEETSMFQEMSTTSIEASSSS
B5: Twinstrep-AtGPA1 (natural protein, Arabidopsis, UniProt P18064 1-383, looked up)
chain: MGLLCSRSRHHTEDTDENTQAAEIERRIEQEAKAEKHIRKLLLLGAGESGKSTIFKQIKLLFQTGFDEGELKSYVPVIHANVYQTIKLLHDGTKEFAQNETDSAKYMLSSESIAIGEKLSEIGGRLDYPRLTKDIAEGIETLWKDPAIQETCARGNELQVPDCTKYLMENLKRLSDINYIPTKEDVLYARVRTTGVVEIQFSPVGENKKSGEVYRLFDVGGQRNERRKWIHLFEGVTAVIFCAAISEYDQTLFEDEQKNRMMETKELFDWVLKQPCFEKTSFMLFLNKFDIFEKKVLDVPLNVCEWFRDYQPVSSGKQEIEHAYEFVKKKFEELYYQNTAPDRVDRVFKIYRTTALDQKLVKKTFKLVDETLRRRNLLEAGLL

Where “and” joins values, the source holds several entries; their conditions need not be identical. Equal values may be shown once. Read-outs that look alike come from different tables or passages of the source.

Assay [1] deals with T1, AtGPA1 (Arabidopsis thaliana, UniProt P18064).
T1 sequence (P18064 1-383): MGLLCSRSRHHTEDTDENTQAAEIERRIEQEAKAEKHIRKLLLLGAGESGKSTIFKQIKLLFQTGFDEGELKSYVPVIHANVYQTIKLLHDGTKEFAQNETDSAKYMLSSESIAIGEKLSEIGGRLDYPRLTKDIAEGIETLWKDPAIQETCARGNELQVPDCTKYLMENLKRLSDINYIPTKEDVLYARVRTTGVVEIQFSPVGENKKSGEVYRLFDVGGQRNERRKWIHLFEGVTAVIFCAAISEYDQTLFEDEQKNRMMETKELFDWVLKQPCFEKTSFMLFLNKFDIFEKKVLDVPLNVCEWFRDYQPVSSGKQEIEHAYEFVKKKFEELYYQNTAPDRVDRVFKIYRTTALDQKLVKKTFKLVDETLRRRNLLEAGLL
In words: Microscale thermophoresis. The assay is classed as binding. A general note: Microscale thermophoresis detects binding through changes in fluorescence in a small temperature gradient.

The target in another assay is T2, XLG2 (Arabidopsis thaliana, UniProt C6KIE6).
T2 sequence (C6KIE6 435-861): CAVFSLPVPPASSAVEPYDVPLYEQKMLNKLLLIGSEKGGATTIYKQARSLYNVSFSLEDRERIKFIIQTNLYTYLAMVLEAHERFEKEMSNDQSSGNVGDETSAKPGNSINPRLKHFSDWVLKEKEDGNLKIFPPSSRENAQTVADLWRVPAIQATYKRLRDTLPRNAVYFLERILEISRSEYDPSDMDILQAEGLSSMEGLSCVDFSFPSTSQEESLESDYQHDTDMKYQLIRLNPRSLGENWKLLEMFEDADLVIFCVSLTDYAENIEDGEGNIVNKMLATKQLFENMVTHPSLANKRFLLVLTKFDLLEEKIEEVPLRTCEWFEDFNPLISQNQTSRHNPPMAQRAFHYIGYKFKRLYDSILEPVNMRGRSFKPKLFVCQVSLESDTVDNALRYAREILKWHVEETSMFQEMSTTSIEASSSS
In words: Microscale thermophoresis. The class given is binding.

Assay [2] deals with T1, AtGPA1. The note with it: read-out: Kd for GTPγS binding to AtGPA1 using a radioactive ligand, ref Johnston, Willard, Kimple, Siderovski, 2008; cited from earlier work.
Another assay concerns the target animal G subunits. To be noted: read-out: range of Kds reported for animal G subunits; ref Malinski, Zera, Angleson, & Wensel, 1996; cited from earlier work.
Assay [3] concerns the target T3, Arabidopsis Gβγ dimer (AGB1/AGG1) (Arabidopsis, UniProt P49177 1-377; Q9FDX9 1-98).
T3 sequence (looked up) 1: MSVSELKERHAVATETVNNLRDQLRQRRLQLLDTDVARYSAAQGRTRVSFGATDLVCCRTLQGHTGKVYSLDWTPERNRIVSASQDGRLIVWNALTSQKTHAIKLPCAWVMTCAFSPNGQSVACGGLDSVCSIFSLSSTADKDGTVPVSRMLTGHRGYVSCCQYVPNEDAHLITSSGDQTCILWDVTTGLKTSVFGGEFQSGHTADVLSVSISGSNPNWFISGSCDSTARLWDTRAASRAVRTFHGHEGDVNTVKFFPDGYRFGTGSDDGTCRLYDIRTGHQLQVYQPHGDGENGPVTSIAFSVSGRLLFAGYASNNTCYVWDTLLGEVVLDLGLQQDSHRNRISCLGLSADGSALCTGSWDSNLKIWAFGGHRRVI
T3 sequence (looked up) 2: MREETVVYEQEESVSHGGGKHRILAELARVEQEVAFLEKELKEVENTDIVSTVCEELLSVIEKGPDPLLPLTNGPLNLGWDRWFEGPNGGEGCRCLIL
Kind of assay: MST.

Assay [4] concerns the target B5. In words: MST.
Assay [5] concerns the target B2. In words: MST.
For assay [6], the target named is B5. Kind of assay: MST. The source holds these as a separate data set.
Setting [7] is: Kd, nucleotide binding to AtGPA1, MST, 25°C, polyHis-tagged AtGPA1.
Where [8] appears, read: Kd, nucleotide binding to XLG2, MST, 25°C, in the presence of Mg2+.
The mark [9] stands for this setting: Kd, nucleotide binding to XLG2 in the presence of Ca2+, MST, Ca2+ instead of Mg2+.

Regarding `Nc1nc2c(ncn2[C@@H]2O[C@H](COP(=O)(O)OP(=O)(O)O)[C@@H](O)[C@H]2O)c(=O)[nH]1` [GDP, guanosine diphosphate], the Kd at AtGPA1 [1] (setting [7]) was 28000 ± 12000 nM; at XLG2 (setting [8]) it was 177000 ± 33000 nM; on XLG2 (setting [9]), approximately 28000 nM. Also, the “affinity of XLG2 lower than of AtGPA1” value on XLG2 (Kd XLG2 vs AtGPA1) is listed as ~ 6 fold.

As for `Nc1nc2c(ncn2[C@@H]2O[C@H](COP(=O)(O)OP(=O)(O)OP(O)(O)=S)[C@@H](O)[C@H]2O)c(=O)[nH]1` [GTPγS], the Kd on AtGPA1 [1] (setting [7]) was ~21 nM and 21 nM; at XLG2 (Kd, nucleotide binding to XLG2, MST, 25°C, Mg2+), 2350 ± 460 nM; on XLG2 (setting [8]) it was approximately 2000 nM; at XLG2 (setting [9]) it was approximately 186000 nM; at AtGPA1 [2], approximately 2 nM; at animal G subunits, 10 to 100 nM. In addition, the “affinity of XLG2 lower than that of AtGPA1 / canonical Gα subunits” value at XLG2 (Kd XLG2 vs AtGPA1, same conditions) is given as 100 times.

B1: Gβγ: Arabidopsis Gβγ dimer (AGB1/AGG1), His tagged, expressed in Sf9 cells (protein)
chain 1: MSVSELKERHAVATETVNNLRDQLRQRRLQLLDTDVARYSAAQGRTRVSFGATDLVCCRTLQGHTGKVYSLDWTPERNRIVSASQDGRLIVWNALTSQKTHAIKLPCAWVMTCAFSPNGQSVACGGLDSVCSIFSLSSTADKDGTVPVSRMLTGHRGYVSCCQYVPNEDAHLITSSGDQTCILWDVTTGLKTSVFGGEFQSGHTADVLSVSISGSNPNWFISGSCDSTARLWDTRAASRAVRTFHGHEGDVNTVKFFPDGYRFGTGSDDGTCRLYDIRTGHQLQVYQPHGDGENGPVTSIAFSVSGRLLFAGYASNNTCYVWDTLLGEVVLDLGLQQDSHRNRISCLGLSADGSALCTGSWDSNLKIWAFGGHRRVI
chain 2: MREETVVYEQEESVSHGGGKHRILAELARVEQEVAFLEKELKEVENTDIVSTVCEELLSVIEKGPDPLLPLTNGPLNLGWDRWFEGPNGGEGCRCLIL
modifications: left off: His6, N-terminal, state not stated | His6, end not stated, state not stated
Regarding B1, the Kd with AtGPA1 [1] (read-out: Kd, Gβγ binding to AtGPA1, Gα in GDP state, MST, Gα in GDP state) was ~2000 nM and 2000 nM; in the assay with XLG2 (read-out: Kd, Gβγ binding to XLG2 Gα domain, MST, column head: Gα in GDP state), ~700 nM and 700 nM.

With B2, the Kd in assay [3] turned out to be 700 nM.

B3: RGS+Ct (AtRGS1, residues from 284 to 459) (domain or fragment, Arabidopsis, UniProt Q8H1F2 284-459, looked up)
chain: KEEFRPVDPNEPLDKLLLNKRFRHSFMEFADSCYAGETLHFFEEVYEHGKIPEDDSIRRIYMARHIMEKFIVAGAEMELNLSHKTRQEILTTQDLTHTDLFKNALNEVMQLIKMNLVRDYWSSIYFIKFKEEESCHEAMHKEGYSFSSPRLSSVQGSDDPFYQEHMSKSSRCSSPG
With B3, the Kd worked out at 125 nM in the assay with Twinstrep-AtGPA1 [4], 198 nM in assay [5] and 67 nM in the assay with Twinstrep-AtGPA1 [6].

B4: RGS1-C domain: recombinant C-terminal RGS domain of Arabidopsis AtRGS1, residues from 284 to 459 (protein)
chain: KEEFRPVDPNEPLDKLLLNKRFRHSFMEFADSCYAGETLHFFEEVYEHGKIPEDDSIRRIYMARHIMEKFIVAGAEMELNLSHKTRQEILTTQDLTHTDLFKNALNEVMQLIKMNLVRDYWSSIYFIKFKEEESCHEAMHKEGYSFSSPRLSSVQGSDDPFYQEHMSKSSRCSSPG
modifications: left off: His, end not stated, cleaved | GST, end not stated, cleaved
As to B4, the “affinity of XLG2 for RGS domain lower than AtGPA1 in its transition state” value in the assay with XLG2 (XLG2 vs AtGPA1 in transition state) was “about 2 times”.

Turning to B5, in assay [3], the Kd turned out to be 2000 nM.

These data come from article PMC7308192 (Journal of biomolecular structure & dynamics, 2019).
